Test results reported in patent US20170319562A1, “Compositions and Methods for Extended Therapy with Aminopyridines” (Acorda Therapeutics, Inc., priority 2009, published 2017).
Like-named read-outs stand apart in the source and are kept apart here.

What was measured:
[1] = tested on: patients with multiple sclerosis; assay: MS-F202 Phase 2 double-blind placebo-controlled dose-comparison study; type: in vivo, human; design: change in overall Ashworth score, Mean: scale not given here
Experimental: The Phase 2, dose-ranging study (MS-F202) was a double-blind, randomized, placebo-controlled, parallel group study with dose levels of 4-aminopyridine-SR of 10 mg, 15 mg or 20 mg b.i.d. Patients were titrated to their randomized dose over two weeks; and the fixed-dose treatment phase was 12 weeks in duration. The prospectively defined primary efficacy variable was the percent change from baseline in average walking speed on the T25FW over the last three visits on the assigned stable dose. Other secondary efficacy variables were the other MSFC assessments (9-hole peg test and PASAT 3″), MSFC combined score, LEMMT, the 12-item Multiple Sclerosis Walking Scale (MSWS-12), Multiple Sclerosis Quality of Life Inventory (MSQLI), Ashworth spasticity score, Clinician Global Impression (CGI), and Subject Global Impression (SGI).
In the study MS-F202, the primary efficacy variable was the percent change from baseline in average walking speed measured using the T25FW. The following sections provide details on the different assessments.
A total of 206 patients with multiple sclerosis were randomized and 195 completed treatment (50/52 on 4-aminopyridine-SR 10 mg b.i.d., 49/50 on 15 mg b.i.d., 51/57 on 20 mg b.i.d. and 45/47 on placebo). The prospectively defined primary efficacy variable was the percent change from baseline in average walking speed on the T25FW over the last three visits on the assigned dose (Visits 7-9, the post-titration, stable dose period). The secondary efficacy variable was response, defined as a 20% or greater improvement in walking speed during the 12-week stable-dose double-blind treatment period (i.e. measurements at Visits 7-9). Other secondary efficacy variables were the other MSFC assessments (9-hole peg test and PASAT 3″), MSFC combined score, LEMMT, MSWS-12, MSQLI, Ashworth spasticity score, CGI, and SGI.
This example provides an embodiment of a method of treating subjects with a sustained release 4-aminopyridine formulation and a Responder analysis of the present invention. This was a Phase 2, double-blind, placebo-controlled, parallel group, 20-week treatment study in 206 subjects diagnosed with multiple sclerosis. This study was designed to investigate the safety and efficacy of three dose levels of 4-aminopyridine-SR, 10 mg b.i.d., 15 mg b.i.d., and 20 mg b.i.d. in subjects with clinically definite multiple sclerosis. The primary efficacy endpoint was an increase, relative to baseline, in walking speed, on the Timed 25 Foot Walk. Secondary efficacy measurements included lower extremity manual muscle testing in four groups of lower extremity muscles (hip flexors, knee flexors, knee extensors, and ankle dorsiflexors); the 9-Hole Peg Test and Paced Auditory Serial Addition Test (PASAT 3″); the Ashworth score for spasticity; Spasm Frequency/Severity scores; as well as a Clinician's (CGI) and Subject's (SGI) Global Impressions, a Subject's Global Impression (SGI), the Multiple Sclerosis Quality of Life Inventory (MSQLI) and the 12-Item Multiple Sclerosis Walking Scale (MSW S-12).
At the first visit (Visit 0), subjects were to enter into a two-week single-blind placebo run-in period for the purpose of establishing baseline levels of function. At Visit 2 subjects were to be randomized to one of four treatment groups (Placebo or 4-aminopyridine-SR 10 mg, 15 mg, 20 mg) and begin two weeks of double-blind dose-escalation in the active drug treatment groups (B, C and D). Group A were to receive placebo throughout the study. Subjects in the 10 mg (Group B) arm of the study took a dose of 10 mg approximately every 12 hours during both weeks of the escalation phase. The 15 mg (Group C) and 20 mg (Group D) dose subjects took a dose of 10 mg approximately every 12 hours during the first week of the escalation phase and titrated up to 15 mg b.i.d. in the second week. Subjects were to be instructed to adhere to an “every 12 hour” dosing schedule. […]

[2] = tested on: patients with multiple sclerosis; assay: MS-F203EXT open-label extension study; type: in vivo, human; settings: for patients classified as Extension Timed Walk Responders: cut-off Jul. 31, 2008
Experimental: Data were presented by study pair (parent and extension).
In the MS-F203EXT study, which allowed patients to enroll directly from the parent study MS-F203, open-label 4-aminopyridine-SR 10 mg b.i.d. was dispensed at visit 0 (a separate screening visit was only required if the screening visit could not be combined with the Final visit for MS-F203); visit 1 was scheduled to occur two weeks after visit 0, visit 2 at 12 weeks after visit 1, visit 3 at 12 weeks after visit 2. The planned interval between subsequent visits was 26 weeks. Therefore, at visit 4, a patient should have been on 4-aminopyridine-SR treatment for approximately one year.
This Example considers efficacy data collected from the three ongoing, open label extension studies (MS-F202EXT, MS-F203EXT, MS-F204EXT). The primary focus was the Timed 25-Foot Walk, assessed in a manner consistent with its evaluation in the parent double-blind studies. This included the determination of response to treatment using a criterion equivalent to the Timed Walk Response criterion used in the parent studies. […] The clinical meaningfulness of this criterion was evaluated in terms of the Subject and Clinician Global Impression scores recorded during the extension studies.
In the extension studies, a “Timed Walk Extension Responder” was defined as a patient who achieved a faster walking speed on the T25FW for the majority of on-drug treatment visits during the first year of the study (Visits 1-4 for MS-F203EXT and MS-F204EXT) than the maximum walking speed previously measured for the patient during any off-drug visits in either the parent study or in the extension study.

[3] = cited from earlier work; for bioavailability: AUC(0-∞) i.v. vs p.o. 2 mg/kg
[4] = Fampridine Non-responders, 1st stbl
[5] = Fampridine Non-responders, 2nd stbl
[6] = Fampridine Non-responders, 3rd stbl
[7] = Fampridine Non-responders, titration
[8] = Fampridine Responders, 1st stbl
[9] = Fampridine Responders, 2nd stbl
[10] = Fampridine Responders, 3rd stbl
[11] = Fampridine Responders, titration

Nc1ccncc1 [4-aminopyridine]
rate of serious AE's ([1]; 10 mg bid): 0%
rate of serious AE's ([1]; 15 mg bid): 10%
rate of serious AE's ([1]; 20 mg bid): 12%
mean reduction from baseline in Overall Ashworth Score, range over visits ([1]; 4-aminopyridine Responders, double-blind): −0.18 to −0.11 units
change in overall Ashworth score, Mean [1, 4]: −0.08
percent change in LEMMT, Mean [1, 4]: 0.10
percent change in Walking Speed, Mean [1, 4]: 3.5
change in overall Ashworth score, Mean [1, 5]: −0.07
percent change in LEMMT, Mean [1, 5]: 0.09
percent change in Walking Speed, Mean [1, 5]: −0.2
change in overall Ashworth score, Mean [1, 6]: 0.00
percent change in LEMMT, Mean [1, 6]: 0.10
percent change in Walking Speed, Mean [1, 6]: −6.5
change in overall Ashworth score, Mean [1, 7]: −0.16
percent change in LEMMT, Mean [1, 7]: 0.12
percent change in Walking Speed, Mean [1, 7]: 8.3
change in overall Ashworth score, Mean [1, 8]: −0.18
percent change in LEMMT, Mean [1, 8]: 0.09
percent change in Walking Speed, Mean [1, 8]: 24.6
change in overall Ashworth score, Mean [1, 9]: −0.11
percent change in LEMMT, Mean [1, 9]: 0.09
percent change in Walking Speed, Mean [1, 9]: 29.0
change in overall Ashworth score, Mean [1, 10]: −0.18
percent change in LEMMT, Mean [1, 10]: 0.17
percent change in Walking Speed, Mean [1, 10]: 27.3
change in overall Ashworth score, Mean [1, 11]: −0.14
percent change in LEMMT, Mean [1, 11]: 0.18
percent change in Walking Speed, Mean [1, 11]: 27.4
post hoc Responder rate (consistently faster walking speeds on drug) ([1]; combined/pooled 4-aminopyridine-SR groups): approximately 37%
decline in walking speed from the original double-blind baseline ([2]; Extension Timed Walk Non-Responders, end of the second year): approximately 8%
improvement in walking speed over the original baseline ([2]; Extension Timed Walk Responders, Visit 6): more than 20%
mean walking speed faster than double-blind baseline at each extension visit ([2]; Extension Timed Walk Responders, first year): more than 30%
patients classified as Extension Timed Walk Responders ([2]; all patients): 24.9%
Extension Timed Walk Response rate within year ([2]; double-blind Non-Responders, year 1): 19.7%
Extension Timed Walk Response rate within year ([2]; double-blind Non-Responders, year 2): 17.5%
Extension Timed Walk Response rate within year ([2]; double-blind Responders, year 1): 42.9%
Extension Timed Walk Response rate within year ([2]; double-blind Responders, year 2): 36.1%
patients classified as Extension Timed Walk Responders ([2]; parent-study treated Timed Walk Non-Responders): 19.7%
patients classified as Extension Timed Walk Responders ([2]; parent-study treated Timed Walk Responders): 41.4%
Extension Timed Walk Response rate within year ([2]; placebo treated in parent study, year 1): 16.2%
Extension Timed Walk Response rate within year ([2]; placebo treated in parent study, year 2): 20.8%
patients classified as Extension Timed Walk Responders ([2]; placebo-treated in parent study): 17.7%
bioavailability ([3]; female rats): ~55%
bioavailability ([3]; male rats): approximately 66.5%
peak plasma concentrations lower in females than in males ([3]; oral administration): 38%
